The text below walks through data of patent US20260028336A1 (Arcus Biosciences, Inc., priority 2022, published 2026).

The first assay concerns Jurkat cells. Briefly: IL-2 secretion assay in CD3/CD28-activated Jurkat cells (AlphaLISA). Format: cell-based. As to conditions: Homo sapiens, CD3/CD28 T Cell Activator, 24 h, IL-2 AlphaLISA. The protocol:
Certain compounds were also evaluated in an IL-2 secretion assay. On the day of the assay, a 16 point, 1:2 master serial dilution of each compound was prepared in Opti-MEM to span a final concentration range of 10 μM to 300 pM. Assays were set up in CORNING® tissue culture-treated 384-well microplates containing 60 nL of each dilution. […] 50,000 cells/well and added to the compound plates. After a short spin (1200 rpm for 1 min), the plates were incubated at 37° C. for 1 hour. The cells were activated by adding 15 μL of IMMUNOCULT™ Human CD3/CD28 T Cell Activator ([…] Technologies) diluted in Opti-MEM. […] The AiphaLISA signal was measured using an EnVision plate reader (PerkinElmer). EC50 values were determined by fitting the data to a standard 4-parameter logistic equation.
(In general: In Alpha technology, singlet oxygen from a donor bead excites a nearby acceptor bead.)
For `CC1CC(c2cccc(-n3cnc4cc(CN5CCC[C@H](C)C5)[nH]c4c3=O)c2)(c2nncn2C)C1` (mixture of isomers) [Example 119, 6—{[(3S)-3-Methylpiperidin-1-yl]methyl}-3-{3-[(1R,3S)-3-methyl-1-(4-methyl-4H-1,2,4-triazol-3-yl)cyclobutyl]phenyl}-3H,4H,5H-pyrrolo[3,2-d]pyrimidin-4-one], the EC50 was < 100 nM.
Regarding `CC1CC(c2cccc(-n3cc(C4CC4)c4c(-c5cnn(C)c5)c[nH]c4c3=O)c2)(c2nncn2C)C1` (mixture of isomers) [Example 131, 4-Cyclopropyl-3-(1-methyl-1H-pyrazol-4-yl)-6-{3-[(1R,3S)-3-methyl-1-(4-methyl-4H-1,2,4-triazol-3-yl)cyclobutyl]phenyl}-1H,6H,7H-pyrrolo[2,3-c]pyridin-7-one], the EC50 is > 5000 nM.
Same read-out and setting: with `C[C@H]1CCCN(Cc2cc3c(C4CC4)cn(-c4cccc([C@]5(c6nncn6C)C[C@@H](C)C5)c4)c(=O)c3[nH]2)C1` [Example 3, 4-cyclopropyl-6-[3-[3-methyl-1-(4-methyl-1,2,4-triazol-3-yl)cyclobutyl]phenyl]-2-[[(3S)-3-methylpiperidin-1-yl]methyl]-1H-pyrrolo[2,3-c]pyridin-7-one] the figure was < 100 nM.
For `C[C@H]1CCCN(Cc2cc3c(C4CC4)cn(-c4cccc([C@]5(c6nncn6C)C[C@H](O)C5)c4)c(=O)c3[nH]2)C1` [Example 99, trans-4-cyclopropyl-6-[3-[3-hydroxy-1-(4-methyl-1,2,4-triazol-3-yl)cyclobutyl]phenyl]-2-[[(3S)-3-methylpiperidin-1-yl]methyl]-1H-pyrrolo[2,3-c]pyridin-7-one], the EC50 fell in the range of 1000 to 5000 nM.

The target in the next assay is T1, Cbl-b (Homo sapiens, UniProt Q13191).
T1 construct: biotin (biotinylated)
T1 sequence (Q13191 whole entry, species assumed): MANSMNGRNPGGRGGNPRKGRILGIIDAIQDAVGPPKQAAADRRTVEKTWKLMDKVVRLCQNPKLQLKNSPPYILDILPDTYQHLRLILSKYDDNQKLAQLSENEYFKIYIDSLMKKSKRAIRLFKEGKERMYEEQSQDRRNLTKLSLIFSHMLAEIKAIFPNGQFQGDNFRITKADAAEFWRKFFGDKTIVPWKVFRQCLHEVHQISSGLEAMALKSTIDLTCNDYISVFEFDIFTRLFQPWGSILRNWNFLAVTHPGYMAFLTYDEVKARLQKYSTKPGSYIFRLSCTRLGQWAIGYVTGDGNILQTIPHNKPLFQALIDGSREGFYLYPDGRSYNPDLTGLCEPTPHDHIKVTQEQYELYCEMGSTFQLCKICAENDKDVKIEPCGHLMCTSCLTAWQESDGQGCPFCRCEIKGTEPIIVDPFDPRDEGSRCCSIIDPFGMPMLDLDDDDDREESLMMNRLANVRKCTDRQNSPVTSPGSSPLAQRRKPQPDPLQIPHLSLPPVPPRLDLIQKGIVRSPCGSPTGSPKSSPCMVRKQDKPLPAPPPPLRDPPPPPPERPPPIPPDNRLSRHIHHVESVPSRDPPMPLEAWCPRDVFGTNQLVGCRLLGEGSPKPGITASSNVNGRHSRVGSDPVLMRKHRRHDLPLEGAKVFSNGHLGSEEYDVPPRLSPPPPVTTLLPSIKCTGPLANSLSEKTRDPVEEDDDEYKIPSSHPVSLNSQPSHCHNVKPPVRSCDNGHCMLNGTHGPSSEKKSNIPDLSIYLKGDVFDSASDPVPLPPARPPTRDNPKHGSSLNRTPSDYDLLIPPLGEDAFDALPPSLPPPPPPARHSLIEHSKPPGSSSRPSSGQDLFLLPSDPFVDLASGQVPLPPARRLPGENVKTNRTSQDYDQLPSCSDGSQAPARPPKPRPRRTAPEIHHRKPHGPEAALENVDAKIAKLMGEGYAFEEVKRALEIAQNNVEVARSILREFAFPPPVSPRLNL
Briefly: Cbl-b probe displacement HTRF binding assay. As to conditions: 0.4 nM biotinylated Cbl-b, 150 nM BODIPY probe. How it is done:
The affinity with which compounds of the present dislcosure bind to Cbl-b was assessed using probe displacement homologous time resolved fluorescence (HTRF) assays. […] The assays were performed in assay buffer consisting of 20 mM Hepes, 150 mM NaCl, 0.01% Triton X-100, 0.5 mM TCEP, 0.01% BSA. On the day of the assay, a 20 point, 1:2 master serial dilution of each compound was prepared in DMSO to span a final concentration range of […] to 0 nM. Two hundred nanoliters of diluted compound was added to each well of a 384-well plate. Fifteen microliters of biotinylated-Cbl-b resuspended in assay buffer were added to each well and the plate incubated for 60 minutes at room temperature prior to addition of 5 μL of BODIPY™ probe in assay buffer. […] After a further 15 minutes of incubation at room temperature, 5 μl of Streptavidin-Terbium cryptate reagent at 5-fold final concentration was added to each well of the 384-well plate. Binding of a probe to Cbl-b results in an increase of HTRF signal. […] Percentage maximum activity in each test well was calculated based on DMSO (maximum activity, 0% displacement) and no protein control wells (baseline activity, 100% displacement). Binding affinity was determined from a dose response curve fitted using a standard four parameter fit equation.
Consider `CC1CC(c2cccc(-n3cnc4cc(CN5CCC[C@H](C)C5)[nH]c4c3=O)c2)(c2nncn2C)C1` (mixture of isomers) [Example 119, 6—{[(3S)-3-Methylpiperidin-1-yl]methyl}-3-{3-[(1R,3S)-3-methyl-1-(4-methyl-4H-1,2,4-triazol-3-yl)cyclobutyl]phenyl}-3H,4H,5H-pyrrolo[3,2-d]pyrimidin-4-one], for which the IC50 is < 100 nM.
Still for that read-out and setting: in the case of `CC1CC(c2cccc(-n3cc(C4CC4)c4c(-c5cnn(C)c5)c[nH]c4c3=O)c2)(c2nncn2C)C1` (mixture of isomers) [Example 131, 4-Cyclopropyl-3-(1-methyl-1H-pyrazol-4-yl)-6-{3-[(1R,3S)-3-methyl-1-(4-methyl-4H-1,2,4-triazol-3-yl)cyclobutyl]phenyl}-1H,6H,7H-pyrrolo[2,3-c]pyridin-7-one] it was < 100 nM.
On to `CC(Sc1nncn1C)c1cccc(-n2cc(C3CC3)c3cc(CN4CCC[C@H](C)C4)[nH]c3c2=O)c1` (stereo partly drawn) [Example 2, 4-cyclopropyl-2-[[(3S)-3-methylpiperidin-1-yl]methyl]-6-[3-[1-[(4-methyl-1,2,4-triazol-3-yl)sulfanyl]ethyl]phenyl]-1H-pyrrolo[2,3-c]pyridin-7-one], for which the IC50 was 100 to 1000 nM.
Still for that read-out and setting: in the case of `CC1CC(c2cccc(-n3cc(C4CC4)c4cc(CN5CCC[C@H](C)C5)n(C)c4c3=O)c2)(c2nncn2C)C1` (stereo partly drawn) [Example 5, 4-cyclopropyl-1-methyl-6-[3-[3-methyl-1-(4-methyl-1,2,4-triazol-3-yl)cyclobutyl]phenyl]-2-[[(3S)-3-methylpiperidin-1-yl]methyl]pyrrolo[2,3-c]pyridin-7-one] it was > 5000 nM.
With `CC1CC(c2cccc(-n3cc(C4CC4)c4ccsc4c3=O)c2)(c2nncn2C)C1` (stereo not drawn) [Example 6, 4-cyclopropyl-6-{3-[3-methyl-1-(4-methyl-4H-1,2,4-triazol-3-yl)cyclobutyl]phenyl}-6H,7H-thieno[2,3-c]pyridin-7-one], the half-maximal inhibitory concentration (IC50) was > 5000 nM.
Same read-out and setting: with `Cn1cnnc1C1(c2cccc(-n3cc(C4CC4)c4cc[nH]c4c3=O)c2)CC2(CC2)C1` [Example 10, 4-cyclopropyl-6-[3-[5-(4-methyl-1,2,4-triazol-3-yl)spiro[2.3]hexan-5-yl]phenyl]-1H-pyrrolo[2,3-c]pyridin-7-one] the figure was 100 to 1000 nM; with `CC1CC(c2cccc(-n3cc(C4CC4)c4nc[nH]c4c3=O)c2)(c2nncn2C)C1` (stereo not drawn) [Example 11, 7-cyclopropyl-5-{3-[(1r,3s)-3-methyl-1-(4-methyl-4H-1,2,4-triazol-3-yl)cyclobutyl]phenyl}-3H,4H,5H-imidazo[4,5-c]pyridin-4-one], 100 to 1000 nM.
`Cc1c[nH]c2c(=O)n(-c3cccc([C@]4(c5nncn5C)C[C@@H](C)C4)c3)cc(C3CC3)c12` [Example 17, 4-Cyclopropyl-3-methyl-6-{3-[(1r,3s)-3-methyl-1-(4-methyl-4H-1,2,4-triazol-3-yl)cyclobutyl]phenyl}-1H,6H,7H-pyrrolo[2,3-c]pyridin-7-one]: the IC50 was 100 to 1000 nM.
Consider `Cn1cnnc1[C@]1(c2cccc(-n3cc(C4CC4)c4c(C(F)(F)F)c[nH]c4c3=O)c2)C[C@H](C)C1` [Example 18, 4-Cyclopropyl-6-{3-[(1r,3s)-3-methyl-1-(4-methyl-4H-1,2,4-triazol-3-yl)cyclobutyl]phenyl}-3-(trifluoromethyl)-1H,6H,7H-pyrrolo[2,3-c]pyridin-7-one], for which the IC50 fell in the range of 100 to 1000 nM.
Still for that read-out and setting: in the case of `Cc1cn(-c2cccc([C@]3(c4nncn4C)C[C@@H](C)C3)c2)c(=O)c2[nH]ccc12` [Example 29, 4-methyl-6-{3-[(1r,3s)-3-methyl-1-(4-methyl-4H-1,2,4-triazol-3-yl)cyclobutyl]phenyl}-1H,6H,7H-pyrrolo[2,3-c]pyridin-7-one] it was 100 to 1000 nM; in that of `CN1CCC(c2cc3c(C4CC4)cn(-c4cccc([C@]5(c6nncn6C)C[C@@H](C)C5)c4)c(=O)c3[nH]2)CC1` [Example 33, 4-cyclopropyl-2-(1-methylpiperidin-4-yl)-6-{3-[(1r,3s)-3-methyl-1-(4-methyl-4H-1,2,4-triazol-3-yl)cyclobutyl]phenyl}-1H,6H,7H-pyrrolo[2,3-c]pyridin-7-one], 100 to 1000 nM; in that of `CC1CC(c2cccc(-n3cc(C4CC4)c4cc(CN5CCCC6CC65)[nH]c4c3=O)c2)(c2nncn2C)C1` (stereo not drawn) [Example 44, 2-({2-azabicyclo[4.1.0]heptan-2-yl}methyl)-4-cyclopropyl-6-{3-[3-methyl-1-(4-methyl-4H-1,2,4-triazol-3-yl)cyclobutyl]phenyl}-1H,6H,7H-pyrrolo[2,3-c]pyridin-7-one], < 100 nM.
Same read-out and setting: in the case of `CC1CC(c2cccc(-n3cc(C4CC4)c4cc(CN5CCC[C@H](C(F)(F)F)C5)[nH]c4c3=O)c2)(c2nncn2C)C1` (stereo partly drawn) [Example 48, 4-cyclopropyl-6-{3-[3-methyl-1-(4-methyl-4H-1,2,4-triazol-3-yl)cyclobutyl]phenyl}-2-{[(3S′)-3-(trifluoromethyl)piperidin-1-yl]methyl}-1H,6H,7H-pyrrolo[2,3-c]pyridin-7-one] it was < 100 nM; in that of `CC1CC(c2cccc(-n3cc(C4CC4)c4cc(CN5CC6CC(C5)O6)[nH]c4c3=O)c2)(c2nncn2C)C1` (stereo not drawn) [Example 53, 4-cyclopropyl-6-{3-[3-methyl-1-(4-methyl-4H-1,2,4-triazol-3-yl)cyclobutyl]phenyl}-2-({6-oxa-3-azabicyclo[3.1.1]heptan-3-yl}methyl)-1H,6H,7H-pyrrolo[2,3-c]pyridin-7-one], < 100 nM.
Same read-out and setting: in the case of `Cn1cnnc1C1(c2cccc(-n3cc(C4CC4)c4cc(CNC5CCC(F)(F)C5)[nH]c4c3=O)c2)CC(F)(F)C1` (stereo not drawn) [Example 80, 4-cyclopropyl-6-{3-[3,3-difluoro-1-(4-methyl-4H-1,2,4-triazol-3-yl)cyclobutyl]phenyl}-2-{[(3,3-difluorocyclopentyl)amino]methyl}-1H,6H,7H-pyrrolo[2,3-c]pyridin-7-one] it was < 100 nM; in that of `Cn1cnnc1C1(c2cccc(-n3cc(C4CC4)c4cc(CNC5(C)CC(F)(F)C5)[nH]c4c3=O)c2)CC(F)(F)C1` [Example 81, 4-cyclopropyl-6-{3-[3,3-difluoro-1-(4-methyl-4H-1,2,4-triazol-3-yl)cyclobutyl]phenyl}-2-{[(3,3-difluoro-1-methylcyclobutyl)amino]methyl}-1H,6H,7H-pyrrolo[2,3-c]pyridin-7-one], < 100 nM.
On to `CC1CC(c2cccc(-n3nc(C4CC4)c4cc[nH]c4c3=O)c2)(c2nncn2C)C1` (stereo not drawn) [Example 116, 4-cyclopropyl-6-{3-[3-methyl-1-(4-methyl-4H-1,2,4-triazol-3-yl)cyclobutyl]phenyl}-1H,6H,7H-pyrrolo[2,3-d]pyridazin-7-one], for which the IC50 lay in the range of 1000 to 5000 nM.
The same measure, in the same setting: in the case of `Cn1cnnc1[C@]1(c2cccc(-n3cc(C(F)(F)F)c4c(S(C)(=O)=O)c[nH]c4c3=O)c2)C[C@H](C)C1` [Example 138, 3-Methanesulfonyl-6-{3-[(1R,3S)-3-methyl-1-(4-methyl-4H-1,2,4-triazol-3-yl)cyclobutyl]phenyl}-4-(trifluoromethyl)-1H,6H,7H-pyrrolo[2,3-c]pyridin-7-one] it was < 100 nM; in that of `C[C@H]1CCCN(Cc2cc3ncn(-c4cccc([C@]5(c6nncn6C(F)F)C[C@H](OC(F)F)C5)c4)c(=O)c3[nH]2)C1` [Example 153, 2—{[(S)-3-methyl-1-piperidyl]methyl}-6-(m-{(1r,3S)-3-difluoromethoxy-1-[4-(difluoromethyl)-4H-1,2,4-triazol-3-yl]cyclobutyl}phenyl)-1,6-dihydro-1,4,6-triaza-7-indenone], < 100 nM.
In the case of `CC(c1ccnc(-n2cc(C3CC3)c3cc(CN4CCC[C@H](C)C4)[nH]c3c2=O)c1)c1nncn1C` (stereo partly drawn) [Example 157, 2—{[(S)-3-methyl-1-piperidyl]methyl}-4-cyclopropyl-6-{4-[1-(4-methyl-4H-1,2,4-triazol-3-yl)ethyl]-2-pyridyl}-1,6-dihydro-1,6-diaza-7-indenone], the IC50 was < 100 nM.

One may read the EC50 as the concentration that produces a half-maximal response. One may read the IC50 as the concentration that inhibits the measured activity by half. Read a high IC50 as weaker potency.
